Laboratory results as given in PubChem BioAssay (NCI).
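Protocol summary: plate cells (96-well), add compound at 5 concentrations, incubate 48 h, interpolate endpoints linearly. Abbreviation: GI50, concentration required for 50% inhibition of growth. The concentration for full growth arrest is given as TGI.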

Key:
Assay in all cases: DTP human tumour cell line panel, 48 h
SK-MEL-28 melanoma = system: SK-MEL-28 melanoma
HOP-62 NSCLC = system: HOP-62 NSCLC
ACHN renal = system: ACHN renal
DU-145 prostate = system: DU-145 prostate
A498 renal = system: A498 renal
SK-MEL-2 melanoma = system: SK-MEL-2 melanoma
MCF7 breast = system: MCF7 breast
RXF 393 renal = system: RXF 393 renal
OVCAR-8 ovarian = system: OVCAR-8 ovarian
MDA-MB-435 = system: MDA-MB-435
SF-295 CNS = system: SF-295 CNS
HCT-15 colon = system: HCT-15 colon
HL-60(TB) leukemia = system: HL-60(TB) leukemia
KM12 colon = system: KM12 colon
MALME-3M melanoma = system: MALME-3M melanoma
SN12C renal = system: SN12C renal
OVCAR-4 ovarian = system: OVCAR-4 ovarian
CAKI-1 renal = system: CAKI-1 renal
SW-620 colon = system: SW-620 colon
HS 578T breast = system: HS 578T breast
NCI-H23 lung = system: NCI-H23 lung
786-0 renal = system: 786-0 renal
SNB-75 CNS = system: SNB-75 CNS
LOX IMVI melanoma = system: LOX IMVI melanoma
SR leukemia = system: SR leukemia
K-562 leukemia = system: K-562 leukemia
HCT-116 colon = system: HCT-116 colon
RPMI-8226 leukemia = system: RPMI-8226 leukemia
SK-MEL-5 melanoma = system: SK-MEL-5 melanoma

COC1CC2CCC(C)C(O)(O2)C(=O)C(=O)N2CCCCC2C(=O)OC(C(C)CC2CCC(O)C(OC)C2)CC(=O)C(C)C=C(C)C(O)C(OC)C(=O)C(C)CC(C)/C=C/C=C/C=C1C (stereo unspecified)
TGI (SK-MEL-28 melanoma): 11.2 µM | GI50 (HOP-62 NSCLC): 159 nM | TGI (HOP-62 NSCLC): 9.96 µM | GI50 (ACHN renal): 2550 nM | TGI (ACHN renal): 21.1 µM | GI50 (DU-145 prostate): 3.52 µM | TGI (DU-145 prostate): 10.9 µM | GI50 (A498 renal): < 5 nM | TGI (A498 renal): 6.86 µM | GI50 (SK-MEL-2 melanoma): 5.19 µM | TGI (SK-MEL-2 melanoma): 12.3 µM | GI50 (MCF7 breast): < 5 nM | TGI (MCF7 breast): 14.6 µM | GI50 (RXF 393 renal): < 5 nM | TGI (RXF 393 renal): 7.48 µM | GI50 (OVCAR-8 ovarian): < 5 nM | TGI (OVCAR-8 ovarian): 24.6 µM | GI50 (MDA-MB-435): 838 nM | TGI (MDA-MB-435): 14.9 µM | GI50 (SF-295 CNS): < 5 nM | TGI (SF-295 CNS): 7.76 µM | GI50 (HCT-15 colon): 81.3 nM | TGI (HCT-15 colon): 14.7 µM | GI50 (HL-60(TB) leukemia): 10.2 µM | TGI (HL-60(TB) leukemia): 23.6 µM | GI50 (KM12 colon): 3.47 µM | TGI (KM12 colon): 11.2 µM | GI50 (MALME-3M melanoma): < 5 nM | TGI (MALME-3M melanoma): 8.36 µM | GI50 (SN12C renal): 5.24 µM | TGI (SN12C renal): 14.6 µM | GI50 (OVCAR-4 ovarian): < 5 nM | TGI (OVCAR-4 ovarian): 10.5 µM | GI50 (CAKI-1 renal): 2580 nM | TGI (CAKI-1 renal): 47.8 µM | GI50 (SW-620 colon): 5.39 µM | TGI (SW-620 colon): 14 µM | GI50 (HS 578T breast): 7.42 nM | TGI (HS 578T breast): 24.4 µM | GI50 (NCI-H23 lung): 68.8 nM | TGI (NCI-H23 lung): 15.5 µM | GI50 (786-0 renal): 5.48 µM | TGI (786-0 renal): 17.3 µM | GI50 (SNB-75 CNS): < 5 nM | TGI (SNB-75 CNS): 7.93 µM | GI50 (LOX IMVI melanoma): 15 nM | TGI (LOX IMVI melanoma): 13.1 µM | GI50 (SR leukemia): < 5 nM | TGI (SR leukemia): 15.2 µM | GI50 (K-562 leukemia): 4.94 µM | TGI (K-562 leukemia): 32.3 µM | GI50 (HCT-116 colon): 4.34 µM | TGI (HCT-116 colon): 11.3 µM | GI50 (RPMI-8226 leukemia): 90.3 nM | TGI (RPMI-8226 leukemia): 19.3 µM | TGI (SK-MEL-5 melanoma): 9.24 µM
